# Results taken from patent US10562898B2, “Substituted benzenesulfonamides as inhibitors of alpha-4 beta-7 integrin activity” (EA PHARMA CO., LTD., priority 2016, dated 2020).
# Molecular target: T1, T cell α4β7 integrin (Homo sapiens, UniProt P13612+P26010)
# T1 construct: Blood samples were obtained from healthy volunteers' blood donation; endogenous in cells; host or cells: CD4-positive T cells in whole blood of healthy human volunteers
# T1 sequence (P13612 34-1032): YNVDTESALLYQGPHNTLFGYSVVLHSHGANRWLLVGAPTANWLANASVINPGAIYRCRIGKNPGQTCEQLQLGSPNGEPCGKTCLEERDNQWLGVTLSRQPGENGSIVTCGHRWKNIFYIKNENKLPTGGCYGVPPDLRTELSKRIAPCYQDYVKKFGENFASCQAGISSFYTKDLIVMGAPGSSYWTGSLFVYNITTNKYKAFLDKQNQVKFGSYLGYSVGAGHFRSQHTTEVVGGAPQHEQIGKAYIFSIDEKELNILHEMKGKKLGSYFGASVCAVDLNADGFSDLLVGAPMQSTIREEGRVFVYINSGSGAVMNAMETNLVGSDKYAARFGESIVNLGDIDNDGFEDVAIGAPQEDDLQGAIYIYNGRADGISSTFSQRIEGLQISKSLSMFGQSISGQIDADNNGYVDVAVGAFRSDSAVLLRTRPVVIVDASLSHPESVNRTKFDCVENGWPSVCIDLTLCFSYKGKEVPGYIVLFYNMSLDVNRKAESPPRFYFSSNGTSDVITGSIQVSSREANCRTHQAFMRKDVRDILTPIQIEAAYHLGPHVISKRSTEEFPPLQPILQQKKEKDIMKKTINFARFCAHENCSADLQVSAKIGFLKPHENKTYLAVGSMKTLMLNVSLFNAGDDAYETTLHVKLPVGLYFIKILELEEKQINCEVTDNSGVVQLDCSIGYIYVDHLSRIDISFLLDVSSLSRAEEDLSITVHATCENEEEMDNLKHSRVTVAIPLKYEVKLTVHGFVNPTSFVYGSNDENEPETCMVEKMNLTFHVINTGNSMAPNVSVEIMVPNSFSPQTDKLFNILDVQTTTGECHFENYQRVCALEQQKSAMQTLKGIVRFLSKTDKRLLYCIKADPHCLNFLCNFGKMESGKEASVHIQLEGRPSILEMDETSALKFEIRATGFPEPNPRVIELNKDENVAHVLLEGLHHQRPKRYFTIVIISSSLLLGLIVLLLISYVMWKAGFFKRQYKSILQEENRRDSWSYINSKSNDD
# T1 sequence (P26010 20-798): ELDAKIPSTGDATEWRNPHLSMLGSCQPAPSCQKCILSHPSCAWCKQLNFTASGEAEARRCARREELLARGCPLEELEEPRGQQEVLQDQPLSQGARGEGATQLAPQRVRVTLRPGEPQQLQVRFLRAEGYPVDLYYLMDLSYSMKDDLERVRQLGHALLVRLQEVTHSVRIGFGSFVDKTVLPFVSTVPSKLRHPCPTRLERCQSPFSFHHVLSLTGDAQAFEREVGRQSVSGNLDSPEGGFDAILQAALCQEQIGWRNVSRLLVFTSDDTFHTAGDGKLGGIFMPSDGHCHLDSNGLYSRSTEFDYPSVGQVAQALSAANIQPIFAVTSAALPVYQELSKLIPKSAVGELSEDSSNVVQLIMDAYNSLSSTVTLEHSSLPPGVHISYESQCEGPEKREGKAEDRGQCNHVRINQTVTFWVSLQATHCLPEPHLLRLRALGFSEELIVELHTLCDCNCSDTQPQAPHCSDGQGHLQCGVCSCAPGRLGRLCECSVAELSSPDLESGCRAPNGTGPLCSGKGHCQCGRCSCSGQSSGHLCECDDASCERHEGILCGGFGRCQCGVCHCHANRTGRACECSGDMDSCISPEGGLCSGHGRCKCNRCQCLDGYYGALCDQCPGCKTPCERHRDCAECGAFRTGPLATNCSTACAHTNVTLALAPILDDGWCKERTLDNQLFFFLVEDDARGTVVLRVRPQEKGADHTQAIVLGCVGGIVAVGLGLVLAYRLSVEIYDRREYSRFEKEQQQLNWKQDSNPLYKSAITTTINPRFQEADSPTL
# Assay: Mouse MAdCAM-1/α4β7 integrin binding inhibitory activity evaluation test in whole human blood
# Format: cell-based
# Settings: recombinant mouse MAdCAM-1/Fc, CD4 positive cells, flow cytometry
# Description: (4) Mouse MAdCAM-1/α4β7 Integrin Binding Inhibitory Activity Evaluation Test in Whole Human Blood
# Each test substance was measured in terms of the binding inhibitory activity of T cell α4β7 integrin and MAdCAM-1 in human whole blood. Blood samples were obtained from healthy volunteers' blood donation.
# A 4 mM MnCl2 solution and each of dilutions of various test substances were added to human whole blood, followed by incubation for 10 minutes. Recombinant mouse MAdCAM-1/Fc (R&D Systems, Inc.) at 10 μg/mL was added to the resultant, and each test sample taken in a total amount of 50 μL was incubated for 30 minutes. Then, 950 μL of Lyse/Fix (BD Biosciences) was added to allow hemolysis and fixation to proceed at 37° C. for 10 minutes. After centrifugation for 5 minutes, the supernatant was removed and 600 μL of a RPMI-1640 medium supplemented with 10% inactivated fetal bovine serum (hereinafter referred to as the medium) was added, followed by centrifugation for 5 minutes, removal of the supernatant, and then washing. After the test sample was washed again with the medium, Rat Anti-Mouse MAdCAM-1 antibody (Southern Biotech) at 0.625 μg/mL was added, followed by incubation for 30 minutes or more. After the test sample was washed with the medium, 50 μg/mL Goat Anti-Rat IgG (H+L) Antibody, FITC (Life Technologies) was added, followed by incubation for 30 minutes or more. After the test sample was washed with the medium, 10 μg/mL PE Rat Anti-Mouse CD4 (BD Pharmigen) was added, followed by incubation for 30 minutes or more. After the test sample was washed with the medium, a ratio of MAdCAM-1 positive cells to CD4 positive cells was measured by using flow cytometry.
# From independent test results using different blood samples of two to three persons, a MAdCAM-1 binding inhibiting rate of each test substance at each of various concentrations was obtained under the setting in which, among wells containing no test substances, a well containing no ligand was scored at 100% inhibition and a well containing ligand was scored at 0% inhibition, and then a concentration IC50 which brought about 50% binding inhibition was calculated.
row,SMILES,IC50
1,"Cn1c(=O)n(-c2ccc(C[C@H](NC(=O)c3cc(F)c(NS(=O)(=O)c4ccc(NC(=O)C(C)(C)C)cc4)cc3F)C(=O)O)cc2)c(=O)c2ccncc21 [Compound A1, (2S)-2-[[4-[[4-(2,2-dimethylpropanoylamino)phenyl]sulfonylamino]-2,5-difluoro-benzoyl]amino]-3-[4-(1-methyl-2,4-dioxo-pyrido[3,4-d]pyrimidin-3-yl)phenyl]propanoic acid]",3.9 nM
2,Cc1c(C)n(C)c(=O)n(-c2ccc(C[C@H](NC(=O)c3cc(F)c(NS(=O)(=O)c4ccc(NC(=O)C(C)(C)C)cc4)cc3F)C(=O)O)cn2)c1=O [Compound A28],1.2 nM
3,Cc1c(C)n(C)c(=O)n(-c2ccc(C[C@H](NC(=O)c3cc(F)c(NS(=O)(=O)c4ccc(NC(=O)C(C)(C)C)cc4)cc3F)C(=O)O)cc2)c1=O [Compound A8],1.3 nM
4,Cc1cn(C)c(=O)n(-c2ccc(C[C@H](NC(=O)c3cc(F)c(NS(=O)(=O)c4ccc(NC(=O)C(C)(C)C)cc4)cc3F)C(=O)O)cn2)c1=O [Compound A54],1.3 nM
5,Cn1ccc(=O)n(-c2ccc(C[C@H](NC(=O)c3cc(F)c(NS(=O)(=O)c4ccc(NC(=O)C(C)(C)C)cc4)cc3F)C(=O)O)cc2)c1=O [Compound A42],2.2 nM
6,Cn1c(=O)n(-c2ccc(C[C@H](NC(=O)c3cc(F)c(NS(=O)(=O)c4ccc(NC(=O)C(C)(C)C)cc4)cc3F)C(=O)O)cn2)c(=O)c2ccncc21 [Compound A26],2.4 nM
7,Cc1cc(=O)n(-c2ccc(C[C@H](NC(=O)c3cc(F)c(NS(=O)(=O)c4ccc(NC(=O)C(C)(C)C)cc4)cc3F)C(=O)O)cn2)c(=O)n1C [Compound A45],1.3 nM
8,Cn1ccc(=O)n(-c2ccc(C[C@H](NC(=O)c3cc(F)c(NS(=O)(=O)c4ccc(NC(=O)C(C)(C)C)cc4)cc3F)C(=O)O)cn2)c1=O [Compound A53],1.8 nM
9,Cn1c2c(c(=O)n(-c3ccc(C[C@H](NC(=O)c4cc(F)c(NS(=O)(=O)c5ccc(NC(=O)C(C)(C)C)cc5)cc4F)C(=O)O)cn3)c1=O)COCC2 [Compound A44],1 nM
10,Cn1c2c(c(=O)n(-c3ccc(C[C@H](NC(=O)c4cc(F)c(NS(=O)(=O)c5ccc(NC(=O)C(C)(C)C)cc5)cc4F)C(=O)O)cn3)c1=O)CCOC2 [Compound A40],2.3 nM
11,Cc1c(C)n(C)c(=O)n(-c2ccc(C[C@H](NC(=O)c3cc(F)c(NS(=O)(=O)c4ccc(NC(=O)C(C)(C)C)cn4)cc3F)C(=O)O)cn2)c1=O [Compound A32],1.9 nM
12,Cc1cc(=O)n(-c2ccc(C[C@H](NC(=O)c3cc(F)c(NS(=O)(=O)c4ccc(NC(=O)C(C)(C)C)cc4)cc3F)C(=O)O)cc2)c(=O)n1C [Compound A46],1.6 nM
13,Cc1cn(C)c(=O)n(-c2ccc(C[C@H](NC(=O)c3cc(F)c(NS(=O)(=O)c4ccc(NC(=O)C(C)(C)C)cc4)cc3F)C(=O)O)cc2)c1=O [Compound A37],3.3 nM
